Experimental data from patent US9663899B2, “Method for making lignocellulosic paper and paper product” (Solenis Technologies, L.P., priority 2015, dated 2017).

Test system: Laccase NS51003
Experiment: ABTS laccase assay for relative laccase activity
Assay type: biochemical, Aspergillus
Procedure: One unit of activity is equal to the micromole of the oxidized product from ABTS per min per mg protein at pH 4.0 to 6.0 at 23° C. in an acetate buffer. […] A diluted enzyme solution (1.5 milliliter (ml)) was added to a mixture of 1.5 ml ABTS (0.5 millimole (mM)) solution and 1.5 ml of sodium acetate buffer (1 mM) to initiate the oxidization reaction. After mixing, incubation was conducted at 23° C., while the change in absorbance per minute was measured at 420 nm. Two Aspergillus laccases were used both from Novozymes (Bagsvaerd, Denmark), to compare with the enzyme compositions. […] NS51002 alone worked best at pH 4-5 while NS51003 worked best at pH 5-6. The ABTS laccase assay was used to evaluate the effects of cationic fixative polymer, lipase and the laccase activator of the dry strength compositions on laccase activity. The same amount of laccase active in each composition was used in the assay. In Table III, the relative activity numbers were determined by normalizing the values based on that of laccase alone at 100%.

In the case of O=S(=O)([O-])[O-].[Cu+2] [copper sulfate], the “effect on laccase activity” value (copper level 0.5 wt. %) is reported as “lost some of its original activity”, the “effect on laccase activity” value (copper sulfate in the composition) is reported as “not significant” and the “effect on laccase activity” value (dosage of copper sulfate higher than 0.5%) is reported as “negatively affected”.
